Measurements reported in US20220390432A1, “METHODS OF CHARACTERIZING AND UTILIZING AGENT-CONDENSATE INTERACTIONS” (Whitehead Institute for Biomedical Research, priority 2019, published 2022).
“Also recorded” adds a separate entry of the source.

Columns and labels:
[1] = test system: super-enhancers in Hela cells; conditions: cisplatin treated Hela cells, published data (41); cited from earlier work
[2] = test system: DNA in MED1 or HP1α droplets; experiment: Cisplatin-DNA engagement assay; format: biochemical; conditions: size-shift on a bioanalyzer; cisplatin 0-2 mM
Procedure: MED1-IDR-BFP and HP1a-BFP droplets were formed by mixing 10 μM protein with the droplet formation buffer containing 50 mM Tris-HCl pH 7.5, 100 mM NaCl, 10% PEG 8000, 10% glycerol, 1 mM DTT and 5 ng/ul DNA in a 10 μl reaction volume. The droplet reactions were incubated for 30 min at RT. Next, increasing concentrations of activated Cisplatin (0, 0.5, 0.75, 1, 1.5, and 2 mM) were added to the droplet reactions and incubated for another 30 min at RT. The reactions are then treated with 1 μl of Proteinase K (Invitrogen, 20 mg/ml) for 4 hr at 55° C. Platination of DNA was visualized by size-shift on a bioanalyzer.

[3] = test system: nuclear condensates in HCT116 cells; experiment: Cisplatin treatment followed by live cell imaging, condensate score; format: cell-based, human; conditions: HCT116, 50 μM cisplatin, up to 12 hours
Procedure: HCT116 cells with the indicated GFP knock-in were plated at 35 k per well of a glass bottom 8-well chamber slide. Following incubation at 37° C. overnight, cells were treated with 50 uM cisplatin in DMEM or a 1:1000 dilution of DMSO for 12 hours. […] For representative images of each of the six tagged lines treated with vehicle or 50 μM cisplatin, cells were imaged on the Zeiss LSM 880 confocal microscope with Airyscan detector with 63× objective at 37° C. Nuclei were segmented from images of treated cells by custom Python scripts using the scikit-image, open-cv, and […] Python packages. Nuclei were segmented by median filter, thresholding, separated by the watershed algorithm, and labeled by the scikit-image label function. […] A grey-level co-occurrence matrix (GLCM) was then generated from the projected signal, and the 'correlation' texture property from the GLCM was calculated per nucleus. One-way ANOVA followed by Sidak's multiple comparisons test was performed on the correlation values across conditions using GraphPad Prism version 8.2.0 for Mac (www.graphpad.com). Finally, to derive the condensation score, these values were subtracted from 1.

[4] = test system: platinated DNA in HCT116 cells; experiment: Cisplatin/condensate co-immunofluorescence; format: cell-based, human; conditions: HCT116, 50 μM cisplatin for 6 hours
Procedure: HCT116 cells were plated in 24-well plate at 50 k cells per well to yield 100 k cells after 21 hours (doubling time of HCTs). Cells were permeabilized using a solution of Tx100 in media at 0.55 pmol/cell for 12 minutes at 37° C. Cells were then washed with 500 ul media and treated with 500 ul of 50 uM cisplatin in media for 6 hours. After 6 hours, the cells were washed once with room temperature PBS and then fixed with 500 uL 4% formaldehyde in PBS for 12 min at room temperature. The cells were then washed 3 more times with PBS. Coverslips were put into a humidifying chamber or stored at 4° C. in PBS. Permeabilization of cells were performed using 0.5% Triton X-100 (Sigma Aldrich, X100) in PBS for 10 minutes followed by three PBS washes. Cells were blocked with 4% IgG-free Bovine Serum Albumin, BSA, (VWR, 102643-516) for 30 minutes and the primary antibody was added at a concentration of 1:500 in PBS for 4-16 hours. […]
For the analysis of co-immunofluorescence data, custom python scripts were written to both process and analyze the 3D image data from IF and DAPI channels. Nuclei were detected using the Triangle thresholding method and a nuclear mask was applied the IF channels. […] Percentage of cisplatin overlap was calculated by the number of defined nuclear cisplatin puncta that overlapped with the protein of interest puncta divided by the total number of nuclear cisplatin puncta.

[5] = Droplet formation assay of small molecule alone without any protein; format: physicochemical; conditions: without any protein added
Procedure: Recombinant BFP, GFP, or mCherry fusion proteins were concentrated and desalted to an appropriate protein concentration and 125 mM NaCl using Amicon Ultra centrifugal filters (30K MWCO, Millipore). […] […] The protein solution was immediately loaded onto glass bottom 384 well plate (Cellvis P384-1.5H-N) and imaged with an Andor confocal microscope with a 150× objective. Unless indicated, images presented are of droplets settled on the glass coverslip.

[6] = biological target: T1, MED1 droplets (Homo sapiens, UniProt Q15648); experiment: In vitro droplet drug chase out experiment; format: binding; conditions: 5 μM cisplatin-TR, 10 μM MED1, unlabeled compound 10, 100 or 500 μM
T1 construct: MED1—amino acids 600-1581; 6xHis (N); made in house; host or cells: LOBSTR cells (E. coli)
T1 sequence (Q15648 600-1581): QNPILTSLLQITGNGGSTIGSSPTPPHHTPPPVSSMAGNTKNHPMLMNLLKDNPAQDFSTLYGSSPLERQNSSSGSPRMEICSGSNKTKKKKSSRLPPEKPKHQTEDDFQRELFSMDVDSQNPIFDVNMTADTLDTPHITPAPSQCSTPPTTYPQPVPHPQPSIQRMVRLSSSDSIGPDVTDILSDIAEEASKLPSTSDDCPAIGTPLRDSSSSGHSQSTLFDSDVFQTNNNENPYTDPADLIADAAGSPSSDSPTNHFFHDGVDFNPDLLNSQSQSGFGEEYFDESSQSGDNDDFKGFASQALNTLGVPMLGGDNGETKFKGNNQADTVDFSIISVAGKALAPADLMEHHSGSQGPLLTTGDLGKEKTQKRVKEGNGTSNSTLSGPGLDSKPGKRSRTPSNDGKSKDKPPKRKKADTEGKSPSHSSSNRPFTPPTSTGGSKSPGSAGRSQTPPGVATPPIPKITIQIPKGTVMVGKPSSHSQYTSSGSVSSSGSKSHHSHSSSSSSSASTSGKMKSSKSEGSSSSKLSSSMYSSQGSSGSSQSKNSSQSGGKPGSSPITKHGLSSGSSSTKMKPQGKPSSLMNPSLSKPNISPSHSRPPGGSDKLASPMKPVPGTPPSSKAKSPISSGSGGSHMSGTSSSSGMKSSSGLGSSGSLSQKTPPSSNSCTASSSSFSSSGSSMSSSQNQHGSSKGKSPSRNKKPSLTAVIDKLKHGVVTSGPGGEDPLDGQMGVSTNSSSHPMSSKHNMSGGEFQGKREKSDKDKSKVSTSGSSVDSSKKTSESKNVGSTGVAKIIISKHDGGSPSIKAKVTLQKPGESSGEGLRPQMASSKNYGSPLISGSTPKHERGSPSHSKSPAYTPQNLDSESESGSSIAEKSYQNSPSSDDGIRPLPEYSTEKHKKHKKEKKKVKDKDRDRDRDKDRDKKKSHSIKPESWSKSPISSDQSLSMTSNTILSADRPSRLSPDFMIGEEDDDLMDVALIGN
Procedure: For chase-out experiments 5 μM labeled cisplatin-TR was added to a MED1 droplets reaction (10 μM MED1, 50 mM Tris-HCl pH 7.5, 10% glycerol, 1 mM DTT, 10% PEG) in order to form MED1 droplets concentrated with Cisplatin-TR. Unlabeled transplatin or unlabeled cisplatin (vehicle, 10 μM, 100 μM, or 500 μM) were added to the droplet mixture and the amount of labeled cisplatin-TR remaining in the droplet is measured after chase out. 100 μM fluorescent FLTX1 was added to a MED1 droplets reaction (10 μM MED1, 50 mM Tris-HCl pH 7.5, 10% glycerol, 1 mM DTT, 10% PEG) in order to form MED1 droplets concentrated with FLTX1.

N.N.[Cl][Pt][Cl] [cisplatin]
location of cisplatin-modified DNA (platinated-DNA pull-down sequencing) [1]: preferentially occurs at super-enhancers | DNA platination in MED1 versus HP1α condensates [2]: more efficiently platinated in MED1 condensates than in HP1α condensates | effect on nuclear condensates in live cells [3]: selective and progressive reduction in MED1 condensates; also recorded: Dissolution of MED1 condensates | effect on nuclear condensates in live cells ([3]; listed as Cisplatin): specifically disrupts MED1 and BRD4 condensates | colocalization of platinated DNA with nuclear condensates [4]: frequently colocalized with MED1 condensates, but not with HP1α or FIB1 condensates | droplet formation of small molecule alone [5]: diffuse fluorescent signal | chase out of cisplatin-TR from MED1 droplets by unlabeled compound ([6]; listed as unlabeled cisplatin): able to chase out cisplatin-TR | chase out of cisplatin-TR from MED1 droplets by unlabeled compound ([6]; listed as unmodified cisplatin): could be chased out of the condensate
